ChEMBL document CHEMBL3102770, “Development and pharmacological characterization of conformationally constrained urotensin II-related peptide agonists” (J Med Chem, 2013)
Calls of active or inactive are those of the source. The rule behind the calls is not given here. Positions of bridges follow the written chain, without caps; N, C: chain ends. Residues, ends and D or L forms follow the SMILES beside them.

Tests used:
[1] = target: T1, Urotensin-2 receptor (Homo sapiens, UniProt Q9UKP6); test: Displacement of [125I]-Urotensin-2 from human GPR14 expressed in CHO cells after 90 mins by gamma counting analysis; assay type: cell-based
T1 sequence (Q9UKP6 whole entry): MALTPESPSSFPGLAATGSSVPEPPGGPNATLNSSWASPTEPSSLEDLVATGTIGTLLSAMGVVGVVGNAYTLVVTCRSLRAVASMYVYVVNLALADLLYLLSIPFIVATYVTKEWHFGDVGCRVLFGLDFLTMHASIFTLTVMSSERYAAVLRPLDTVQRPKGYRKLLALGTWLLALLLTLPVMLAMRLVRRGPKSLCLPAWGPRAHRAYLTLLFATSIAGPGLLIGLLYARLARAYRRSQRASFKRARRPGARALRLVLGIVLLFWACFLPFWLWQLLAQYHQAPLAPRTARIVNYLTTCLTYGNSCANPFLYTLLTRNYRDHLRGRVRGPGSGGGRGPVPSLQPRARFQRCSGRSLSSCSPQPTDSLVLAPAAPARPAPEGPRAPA

[2] = target: T2, Urotensin-2 receptor (Rattus norvegicus) (UniProt P49684); test: Agonist activity at urotensin-2 receptor in Sprague-Dawley rat aortic rings assessed as KCl-induced vasoconstriction at 3 X 10^-11 to 3 X 10^-6 M relative to control
T2 sequence (whole entry): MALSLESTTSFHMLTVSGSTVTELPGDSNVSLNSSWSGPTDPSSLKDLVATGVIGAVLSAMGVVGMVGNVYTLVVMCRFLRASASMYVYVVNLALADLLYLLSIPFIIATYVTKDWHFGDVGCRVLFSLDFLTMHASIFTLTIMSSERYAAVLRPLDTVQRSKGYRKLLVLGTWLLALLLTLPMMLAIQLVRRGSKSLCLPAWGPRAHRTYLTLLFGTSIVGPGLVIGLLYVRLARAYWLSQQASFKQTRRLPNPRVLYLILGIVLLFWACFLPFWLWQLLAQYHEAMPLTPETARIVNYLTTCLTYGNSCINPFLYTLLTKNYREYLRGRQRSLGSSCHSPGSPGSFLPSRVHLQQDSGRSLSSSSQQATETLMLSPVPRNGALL

[3] = target: T3, Urotensin-2 receptor (Rattus norvegicus, UniProt P49684); test: Agonist activity at urotensin-2 receptor in Sprague-Dawley rat aortic rings assessed as KCl-induced vasoconstriction
T3 sequence (P49684 whole entry): T2 sequence (whole entry)

[4] = target: T2, Urotensin-2 receptor (Rattus norvegicus); test: Agonist activity at urotensin-2 receptor in Sprague-Dawley rat aortic rings assessed as KCl-induced vasoconstriction at 10^-5.5 M relative to control

Emax [2]	EC50 ([3]; read-out: EC50)	EC50 ([3]; read-out: pEC50 (converted))	Emax [4]	SMILES	also measured
51%	181 nM	380 nM	–	CC(C)[C@H](NC(=O)[C@@H]1CSSC[C@H](NC(=O)[C@H](C)N)C(=O)N[C@@H](Cc2ccccc2)C(=O)N[C@H]2Cc3c([nH]c4ccccc34)CN(C2=O)[C@@H](CCCCN)C(=O)N[C@@H](Cc2ccc(O)cc2)C(=O)N1)C(=O)O	IC50 ([1]; read-out: IC50): 808 nM
inactive	–	–	–	CC(C)[C@H](NC(=O)[C@@H]1CSSC(C)(C)[C@@H](NC(=O)[C@H](C)N)C(=O)N[C@@H](Cc2ccccc2)C(=O)N2CCc3ccccc3[C@H]2C(=O)N[C@@H](CCCCN)C(=O)N[C@@H](Cc2ccc(O)cc2)C(=O)N1)C(=O)O	–
–	–	> 1000 nM	77%	CC(C)[C@H](NC(=O)[C@@H]1CSSC[C@H](NC(=O)[C@H](C)N)C(=O)N[C@@H](Cc2ccccc2)C(=O)N[C@@H](CC2CCCCC2)C(=O)N[C@@H](CCCCN)C(=O)N[C@@H](Cc2ccc(O)cc2)C(=O)N1)C(=O)O	–
102%	251 nM	–	–	CC(C)[C@H](NC(=O)[C@@H]1CSSC[C@H](NC(=O)[C@H](C)N)C(=O)N[C@@H](Cc2ccccc2)C(=O)N[C@@H](c2ccccc2)C(=O)N[C@@H](CCCCN)C(=O)N[C@@H](Cc2ccc(O)cc2)C(=O)N1)C(=O)O	–
inactive	–	–	–	CC(C)[C@H](NC(=O)[C@@H]1CSSC[C@H](NC(=O)[C@H](C)N)C(=O)N[C@@H](Cc2ccccc2)C(=O)N2Cc3[nH]c4ccccc4c3C[C@H]2C(=O)N[C@@H](CCCN)C(=O)N[C@@H](Cc2ccc(O)cc2)C(=O)N1)C(=O)O	IC50 ([1]; read-out: pIC50 (converted)): > 10000 nM; EC50 [3]: Not Active
148%	159 nM	162 nM	–	CC(C)[C@H](NC(=O)[C@@H]1CSSC[C@H](NC(=O)[C@H](C)N)C(=O)N[C@@H](Cc2ccccc2)C(=O)N[C@@H]2Cc3c([nH]c4ccccc34)CN(C2=O)[C@@H](CCCCN)C(=O)N[C@@H](Cc2ccc(O)cc2)C(=O)N1)C(=O)O	IC50 ([1]; read-out: IC50): 60 nM
–	–	–	92%	CC(C)[C@H](NC(=O)[C@@H]1CSSC[C@H](NC(=O)[C@H](C)N)C(=O)N[C@@H](Cc2ccccc2)C(=O)N[C@@H](Cc2ccc(I)cc2)C(=O)N[C@@H](CCCCN)C(=O)N[C@@H](Cc2ccc(O)cc2)C(=O)N1)C(=O)O	IC50 ([1]; read-out: IC50): 58 nM
–	–	> 1000 nM	43%	CC(C)[C@H](NC(=O)[C@@H]1CSSC[C@H](NC(=O)[C@H](C)N)C(=O)N[C@@H](Cc2ccccc2)C(=O)N2Cc3ccccc3C[C@H]2C(=O)N[C@@H](CCCCN)C(=O)N[C@@H](Cc2ccc(O)cc2)C(=O)N1)C(=O)O	IC50 ([1]; read-out: pIC50 (converted)): > 10000 nM
100%	7 nM	8.13 nM	–	CC(C)[C@H](NC(=O)[C@@H]1CSSC[C@H](NC(=O)[C@H](C)N)C(=O)N[C@@H](Cc2ccccc2)C(=O)N[C@@H](Cc2c[nH]c3ccccc23)C(=O)N[C@@H](CCCCN)C(=O)N[C@@H](Cc2ccc(O)cc2)C(=O)N1)C(=O)O	–
–	–	–	42%	CC(C)[C@H](NC(=O)[C@@H]1CSSC[C@H](NC(=O)[C@H](C)N)C(=O)N[C@@H](Cc2ccccc2)C(=O)N2Cc3[nH]c4ccccc4c3C[C@@H]2C(=O)N[C@@H](CCCCN)C(=O)N[C@@H](Cc2ccc(O)cc2)C(=O)N1)C(=O)O	–
139%	–	–	–	CC(C)[C@H](NC(=O)[C@@H]1CSSC[C@H](NC(=O)[C@H](C)N)C(=O)N[C@@H](Cc2ccccc2)C(=O)N2Cc3[nH]c4ccccc4c3C[C@H]2C(=O)N[C@@H](CCCCN)C(=O)N[C@@H](Cc2ccc(O)cc2)C(=O)N1)C(=O)O	–
inactive	–	–	–	CC(C)[C@H](NC(=O)[C@@H]1CSSC[C@H](NC(=O)[C@H](C)N)C(=O)N[C@@H](Cc2ccccc2)C(=O)N2CCc3ccccc3[C@H]2C(=O)N[C@@H](CCCN)C(=O)N[C@@H](Cc2ccc(O)cc2)C(=O)N1)C(=O)O	IC50 ([1]; cho): Not Active; EC50 [3]: Not Active
86%	54 nM	–	–	CC(C)[C@H](NC(=O)[C@@H]1CSSC[C@H](NC(=O)[C@H](C)N)C(=O)N[C@@H](Cc2ccccc2)C(=O)N[C@@H](Cc2cccc3ccccc23)C(=O)N[C@@H](CCCCN)C(=O)N[C@@H](Cc2ccc(O)cc2)C(=O)N1)C(=O)O	IC50 ([1]; read-out: IC50): 17 nM
–	–	–	69%	CC(C)[C@H](NC(=O)[C@@H]1CSSC[C@H](NC(=O)[C@H](CC(=O)O)NC(=O)[C@@H]2CCCN2C(=O)[C@@H](NC(=O)[C@@H](N)CCC(=O)O)[C@@H](C)O)C(=O)N[C@@H](Cc2ccccc2)C(=O)N2CCC[C@H]2C(=O)N[C@@H](CCCCN)C(=O)N[C@@H](Cc2ccc(O)cc2)C(=O)N1)C(=O)O (H-ETPDCFPKYCV-OH; disulfide 5-10)	–
inactive	–	–	–	CC(C)[C@H](NC(=O)[C@@H]1CSSC[C@H](NC(=O)[C@H](C)N)C(=O)N[C@@H](Cc2ccccc2)C(=O)N[C@@H](C(C)(C)C)C(=O)N[C@@H](CCCCN)C(=O)N[C@@H](Cc2ccc(O)cc2)C(=O)N1)C(=O)O	IC50 ([1]; read-out: pIC50 (converted)): > 10000 nM; EC50 [3]: Not Active
–	–	> 1000 nM	23%	CC(C)[C@H](NC(=O)[C@@H]1CSSC[C@H](NC(=O)[C@H](C)N)C(=O)N[C@@H](Cc2ccccc2)C(=O)N[C@@H](C(c2ccccc2)c2ccccc2)C(=O)N[C@@H](CCCCN)C(=O)N[C@@H](Cc2ccc(O)cc2)C(=O)N1)C(=O)O	IC50 ([1]; read-out: pIC50 (converted)): 282 nM
–	825 nM	–	34%	CC(C)[C@H](NC(=O)[C@@H]1CSSC[C@H](NC(=O)[C@H](C)N)C(=O)N[C@@H](Cc2ccccc2)C(=O)N[C@H](Cc2cccc3ccccc23)C(=O)N[C@@H](CCCCN)C(=O)N[C@@H](Cc2ccc(O)cc2)C(=O)N1)C(=O)O	–
–	–	–	–	CC(C)[C@H](NC(=O)[C@@H]1CSSC(C)(C)[C@H](NC(=O)[C@H](C)N)C(=O)N[C@@H](Cc2ccccc2)C(=O)N2CCc3ccccc3[C@H]2C(=O)N[C@@H](CCCCN)C(=O)N[C@@H](Cc2ccc(O)cc2)C(=O)N1)C(=O)O	EC50 [3]: Not Active
128%	259 nM	832 nM	–	CC(C)[C@H](NC(=O)[C@@H]1CSSC[C@H](NC(=O)[C@H](C)N)C(=O)N[C@@H](Cc2ccccc2)C(=O)N2Cc3ccccc3C[C@@H]2C(=O)N[C@@H](CCCCN)C(=O)N[C@@H](Cc2ccc(O)cc2)C(=O)N1)C(=O)O	–
126%	22 nM	–	–	CC(C)[C@H](NC(=O)[C@@H]1CSSC[C@H](NC(=O)[C@H](C)N)C(=O)N[C@@H](Cc2ccccc2)C(=O)N2CCc3ccccc3[C@H]2C(=O)N[C@@H](CCCCN)C(=O)N[C@@H](Cc2ccc(O)cc2)C(=O)N1)C(=O)O	IC50 ([1]; read-out: IC50): 10 nM
113%	21 nM	–	–	CC(C)[C@H](NC(=O)[C@@H]1CSSC[C@H](NC(=O)[C@H](C)N)C(=O)N[C@@H](Cc2ccccc2)C(=O)N2CCc3ccccc3[C@@H]2C(=O)N[C@@H](CCCCN)C(=O)N[C@@H](Cc2ccc(O)cc2)C(=O)N1)C(=O)O	IC50 ([1]; read-out: IC50): 21 nM
–	–	> 1000 nM	64%	CC(C)[C@H](NC(=O)[C@@H]1CSSC[C@H](NC(=O)[C@H](C)N)C(=O)N[C@@H](Cc2ccccc2)C(=O)N[C@H](C(C)(C)C)C(=O)N[C@@H](CCCCN)C(=O)N[C@@H](Cc2ccc(O)cc2)C(=O)N1)C(=O)O	IC50 ([1]; read-out: pIC50 (converted)): > 1000 nM
116%	117 nM	–	–	CC(C)[C@H](NC(=O)[C@@H]1CSSC[C@H](NC(=O)[C@H](C)N)C(=O)N[C@@H](Cc2ccccc2)C(=O)N[C@H](c2ccccc2)C(=O)N[C@@H](CCCCN)C(=O)N[C@@H](Cc2ccc(O)cc2)C(=O)N1)C(=O)O	IC50 ([1]; read-out: pIC50 (converted)): 27.5 nM

SMILES	Emax [2]	EC50 ([3]; read-out: EC50)	EC50 ([3]; read-out: pEC50 (converted))	Emax [4]	also measured
CC(C)[C@H](NC(=O)[C@@H]1CSSC[C@@H](NC(=O)[C@H](CC(=O)O)NC(=O)[C@H]2CCCN2C(=O)[C@@H](NC(=O)[C@@H](N)CCC(=O)O)[C@@H](C)O)C(=O)N[C@H](Cc2ccccc2)C(=O)N[C@@H](Cc2c[nH]c3ccccc23)C(=O)N[C@H](CCCCN)C(=O)N[C@@H](Cc2ccc(O)cc2)C(=O)N1)C(=O)O	117%	–	–	–	–
CC(C)[C@H](NC(=O)[C@@H]1CSSC[C@H](NC(=O)[C@H](CC(=O)O)NC(=O)[C@@H]2CCCN2C(=O)[C@@H](NC(=O)[C@@H](N)CCC(=O)O)[C@@H](C)O)C(=O)N[C@@H](Cc2ccccc2)C(=O)N[C@@H](Cc2c[nH]c3ccccc23)C(=O)N[C@@H](CCCCN)C(=O)N[C@@H](Cc2ccc(O)cc2)C(=O)N1)C(=O)O [HUMAN UROTENSIN II]	–	1 nM	0.832 nM	–	–
